{
  "source": "patent US20260318831A1",
  "about": "(University of Cincinnati, priority 2023, published 2026)",
  "format_in_all_cases": "cell-based",
  "key": {"[1]": {"test_system": "endolysosomes in HeLa cells", "assay": "Dynamics of PyQPMe-stained endolysosomes during autophagy", "method": "FIGS. 6A-6H depict the dynamics of PyQPMe-stained endolysosomes during autophagy. FIG. 6A. Confocal images of HeLa cells incubated with PyQPMe following treatment with or without CCCP for 24 h. FIG. 6B. Quantification of total endolysosomes and late endosomes/lysosomes in PyQPMe-stained HeLa cells with or without CCCP treatment. FIG. 6C. The ratio of the number of late endosomes/lysosomes to total endolysosomes in PyQPMe-stained HeLa cells treated with or without CCCP. FIG. 6D. Quantification of ratio of red to green intensity in PyQPMe-stained HeLa cells without CCCP treatment. FIG. 6E. Quantification of ratio of red to green intensity in PyQPMe-stained HeLa cells with CCCP treatment for 24 h. FIG. 6F. Confocal images of HeLa cells incubated with PyQPMe following treatment with or without rapamycin for 24 h. FIG. 6G. Quantification of total endolysosomes and late endosomes/lysosomes in PyQPMe-stained HeLa cells with or without rapamycin treatment. FIG. 6H. The ratio of the number of late endosomes/lysosomes to total endolysosomes in PyQPMe-stained HeLa cells treated with or without rapamycin. Data are given as M±SEM (n=10 independent samples from 10 cells for each statistical analysis); the statistical differences were analyzed by Student's t-test, p<0.05 is considered to statistical significant (**** p≤0.0001; ns p>0.05).\nAutophagy is a natural degradation process of cells that removes unnecessary or damaged biological macromolecules or organelles to maintain homeostasis. After autophagosomes engulf unnecessary components, both late endosomes and lysosomes can fuse with autophagosomes to degrade autophagosomal cargo by forming amphisomes and autolysosomes, respectively. To study the behavior of endolysosomes during autophagy, carbonyl [COMPOUND LEFT OUT] m-chlorophenyl hydrazone (CCCP), a common inducer for mitophagy (one type of autophagy), was exploited to induce autophagy in PyQPMe-stained cells. Cells were treated with 10 μM CCCP for 24 h prior to PyQPMe staining. […] As mentioned above (FIG. 2C), pH 5-6 is the cut-off point for the red to green fluorescence intensity ratio of PyQPMe, which perfectly matches the pH changes during conversion from early endosomes to late endosomes. […] Inversely, when the ratio is greater than 1, it represents the population of late endosomes/lysosomes (FIGS. 3D, 6D, 6E).\nRapamycin, a classical autophagy inducer, activates autophagy by inhibiting mTOR protein activation. To investigate the effect of rapamycin on endolysosomes, we treated HeLa cells with 0.5 μM rapamycin for 24 h prior to PyQPMe staining. […] To track the dynamics of endolysosomes in classical autophagy, the total endolysosomes and late endosomes/lysosomes in rapamycin-treated cells were quantified. […] Meanwhile, similar to the CCCP-induced mitophagy (FIGS. 6A, 6C), the proportion of late endosomes/lysosomes to total endolysosomes remained the same (~54%) during classical autophagy process (FIG. 6H).\n(§1) Leica Stellaris 8 Confocal imaging. High-resolution images were acquired on a commercial Leica Stellaris 8 Confocal Microscope under LIGHTNING mode. Laser powers were set at 10% intensity for 405 nm and 640 nm channels. The objective was 63×/1.4. High-resolution images were captured from the randomly selected field of view and analyzed with Leica LAS X and ImageJ software. All the images were exported on the Auto scale of the Leica LAS X software. Cells were seeded on glassed-bottomed cell dishes (MatTek) for 24 hours. Cells stained with PyQPMe (20 nM, 10 min) were treated with Wortmannin (1 μM, 24 h), CCCP ([…], 24 h), rapamycin (0.5 μM, 24 h), chloroquine (25 μM, 30 min), and NH4Cl (50 mM, 30 min). All PCC values were analyzed in the CellProfiler."}, "HeLa cells [2]": {"test_system": "HeLa cells", "assay": "Photobleaching comparison of LTR and PyQPMe", "conditions": "continuous confocal laser at 100% power", "text": "FIGS. 4A-4G depict the characterization of imaging properties of PyQPMe-stained endolysosomes. FIG. 4A. Confocal image of PyQPMe-stained endolysosomes and fluorescence intensity profile (FIG. 4B) of the write line in FIG. 4A. FIG. 4C. Confocal image of PyQPMe-stained late endosomes/lysosomes and fluorescence intensity profile (FIG. 4D) of the write line in FIG. 4C. FIG. 4E. Confocal images of HeLa cells labeled with LTR and PyQPMe and 3D fluorescence intensity plots of rectangles of integration. FIG. 4F. Continuous imaging of HeLa cells labeled with LTR or PyQPMe at 100% laser intensity for photobleaching, and each scan time was 10 s, images were captured under a red channel. FIG. 4G. Normalized fluorescence intensity of LTR and PyQPMe in FIG. 4F.\nResistance to photobleaching is a crucial property of probes that determines whether they can be used for long-term fluorescence tracking. To characterize this property, a photobleaching comparison study between LTR and PyQPMe was done in HeLa cells (FIG. 4F).\nLeica Stellaris 8 Confocal imaging. High-resolution images were acquired on a commercial Leica Stellaris 8 Confocal Microscope under LIGHTNING mode. Laser powers were set at 10% intensity for 405 nm and 640 nm channels. […] High-resolution images were captured from the randomly selected field of view and analyzed with Leica LAS X and ImageJ software. […] All PCC values were analyzed in the CellProfiler."}, "HeLa cells [3]": {"test_system": "HeLa cells", "assay": "Confocal imaging of PyQPMe uptake by endocytosis", "conditions": "chloroquine 25 μM, 30 min; NH4Cl 50 mM", "method": "In some aspects, the probes of the present disclosure can be administered to living cells, either in vitro or in vivo. To take advantage of the absorption and emission spectra of PyQPMe, this probe was administered in high-resolution microscopy for living cells. The toxicity of PyQPMe was examined at first before characterizing its imaging properties. Cell Counting Kit-8 (CCK-8) was used to investigate the viability of HeLa cells stained with PyQPMe. […] Next, PyQPMe was characterized by Leica Stellaris Confocal Microscope in the LIGHTNING module for high-resolution imaging. […] The signal tended to be endolysosomes because endolysosomes have a low pH range from 4.7 to 6.3. […] Since low temperatures can inhibit endocytosis, experiments at a lower temperature were performed.\nas §1"}, "[4]": {"test_system": "endolysosomes in HeLa cells", "assay": "Dynamics of PyQPMe-stained endolysosomes (puncta counting)", "conditions": "wortmannin 1 μM, 24 h", "method": "FIGS. 5A-5H depict the characterization of dynamics of PyQPMe-stained endolysosomes. FIG. 5A. Confocal images of HeLa cells stained with PyQPMe following treatment with or without Wortmannin for 24 h. FIG. 5B. Schematic illustration of the effect of Wortmannin which inhibits the conversion from early endosomes into late endosomes. FIG. 5C. Quantification of total endolysosomes and late endosomes/lysosomes in PyQPMe-stained HeLa cells with or without Wortmannin treatment. FIG. 5D. The ratio of the number of late endosomes/lysosomes to total endolysosomes in PyQPMe-stained HeLa cells treated with or without Wortmannin. FIG. 5E. Confocal images of HeLa cells stained with PyQPMe for 10 min and 60 min. FIG. 5F. The mean red puncta fluorescence intensity of PyQPMe-stained HeLa cells for 10 min and 60 min incubation. FIG. 5G. Quantification of total endolysosomes and late endosomes/lysosomes in PyQPMe-stained HeLa cells for 10 min and 60 min. FIG. 5H. The ratio of the number of late endosomes/lysosomes to total endolysosomes in PyQPMe-stained HeLa cells for 10 min and 60 min. Data are given as M±SEM (n=10 independent samples from 10 cells for each statistical analysis); the statistical differences were analyzed by Student's t-test, p<0.05 is considered to statistical significant (** p≤0.01; *** p≤0.001; **** p≤0.0001; ns p>0.05).\nBecause of the popularity of quantitative cell biology, it is important to design powerful tools that can digitize individual cells and subcellular organelles to elucidate biological problems in detail. With its great pH response, long-term photostability, and excellent signal-to-noise ratio for high-resolution imaging, PyQPMe was successfully used to track the dynamics of endolysosomes within cells by counting the number of puncta fluorescence signals in both green and red channels (FIG. 5A).\nNext, the effects of different incubation time on the endocytic pathway were tested.\nas §1"}},
  "data": [
    {"smiles": "N#CC(C#N)=NNc1cccc(Cl)c1", "note": "[CCCP]", "values": [
      {"measurement": "number of total endolysosomes and late endosomes/lysosomes vs controls", "setting": "[1]; CCCP 10 μM, 24 h (mitophagy)", "value": "significant increase"},
      {"measurement": "ratio of late endosomes/lysosomes to total endolysosomes", "setting": "[1]; CCCP 10 μM, 24 h, by counting (FIG. 6C)", "value": "~ 55%"},
      {"measurement": "ratio of late endosomes/lysosomes to total endolysosomes from red to green intensity", "setting": "[1]; CCCP 24 h (FIG. 6E), 52% without CCCP (FIG. 6D)", "value": 56, "unit": "%"},
      {"measurement": "acidity of early and late endosomes", "setting": "[1]; CCCP, distribution of red to green intensity ratio", "value": "both early and late endosomes became more acidic"}
    ]},
    {"smiles": "CN(C)CCNC(=O)CCc1ccc2n1[B-](F)(F)[N+]1=C(c3ccc[nH]3)C=CC1=C2", "note": "[LTR, reference compound]", "values": [
      {"measurement": "fluorescence intensity on photobleaching", "setting": "HeLa cells [2]", "value": "disappeared rapidly after two scans"}
    ]},
    {"smiles": "Cl.N", "note": "[NH4Cl, reference compound]", "values": [
      {"measurement": "effect of endocytic inhibitor on PyQPMe fluorescence", "setting": "HeLa cells [3]", "value": "significant reduction in fluorescence"}
    ]},
    {"smiles": "CCN(CC)CCCC(C)Nc1ccnc2cc(Cl)ccc12", "note": "(stereo not drawn) [chloroquine, reference compound]", "values": [
      {"measurement": "effect of endocytic inhibitor on PyQPMe fluorescence", "setting": "HeLa cells [3]", "value": "significant reduction in fluorescence"}
    ]},
    {"smiles": "CO[C@H]1C[C@@H]2CC[C@@H](C)[C@@](O)(O2)C(=O)C(=O)N2CCCC[C@H]2C(=O)O[C@H]([C@H](C)C[C@@H]2CC[C@@H](O)[C@H](OC)C2)CC(=O)[C@H](C)/C=C(\\C)[C@@H](O)[C@@H](OC)C(=O)[C@H](C)C[C@H](C)/C=C/C=C/C=C/1C", "note": "[rapamycin]", "values": [
      {"measurement": "fluorescent spots in both green and red channels", "setting": "[1]; rapamycin 0.5 μM, 24 h", "value": "more fluorescent spots"},
      {"measurement": "number of total endolysosomes and late endosomes/lysosomes", "setting": "[1]; rapamycin 0.5 μM, 24 h", "value": "significantly increased"},
      {"measurement": "proportion of late endosomes/lysosomes to total endolysosomes", "setting": "[1]; rapamycin 0.5 μM, 24 h (FIG. 6H)", "value": "~ 54%"}
    ]},
    {"smiles": "COC[C@H]1OC(=O)c2coc3c2[C@@]1(C)C1=C(C3=O)[C@@H]2CCC(=O)[C@@]2(C)C[C@H]1OC(C)=O", "note": "[wortmannin, reference compound]", "values": [
      {"measurement": "number of endolysosomes vs untreated cells", "setting": "[4]", "value": "much higher than that in untreated cells"},
      {"measurement": "percentage of late endosomes/lysosomes in total endolysosomes vs untreated", "setting": "[4]", "value": "significantly decreased"}
    ]}
  ]
}
